Test results taken from EP1935887A1, “Heterocyclic substituted carbonyl derivatives and their use as dopamine D3 receptor ligands” (Aventis Pharmaceuticals Inc., priority 2001, dated 2002).

target: T1, Cloned Human Dopamine D3 Receptors (Homo sapiens, UniProt P35462); assay: [N-Methyl-3H]Spiroperidol binding to cloned human dopamine D3 receptors; conditions: Table 2; unit inferred; read-out: d3Ki
T1 construct: expressed in transfected cells; membrane homogenate
Outline: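 [N-methyl-3H]spiroperidol binding is run in Tris buffer, pH 7.7. Receptor source is membranes of a stably transfected, high-expressing CHO clone carrying the human D3 gene, kept at -80°C in 10% DMSO.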

T1 sequence (P35462 whole entry): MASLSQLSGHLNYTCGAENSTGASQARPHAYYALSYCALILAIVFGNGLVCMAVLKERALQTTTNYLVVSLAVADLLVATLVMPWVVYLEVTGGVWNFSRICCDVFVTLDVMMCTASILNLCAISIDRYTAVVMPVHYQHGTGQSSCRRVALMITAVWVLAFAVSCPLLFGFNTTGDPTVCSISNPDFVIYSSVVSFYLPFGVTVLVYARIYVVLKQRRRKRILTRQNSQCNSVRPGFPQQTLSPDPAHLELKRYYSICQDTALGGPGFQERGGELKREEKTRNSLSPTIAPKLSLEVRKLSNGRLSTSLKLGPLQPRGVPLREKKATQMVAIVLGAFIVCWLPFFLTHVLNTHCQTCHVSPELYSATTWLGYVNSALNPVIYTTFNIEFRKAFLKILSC

Row | SMILES | Ki [nM]
1 | COc1cc(CNC(=O)[C@@H]2C[C@H]2CN2CCN(c3csc4cc(C(F)(F)F)ccc34)CC2)cc(OC)c1OC [compound 826079] | 106
2 | O=C(NCCc1ccccn1)[C@@H]1C[C@H]1CN1CCN(c2csc3cc(C(F)(F)F)ccc23)CC1 [compound 826080] | 14.8

Further lines, results first:

Row | Ki [nM] | SMILES
3 | 31 | O=C(NC1CCCCCCCC1)[C@@H]1C[C@H]1CN1CCN(c2csc3cc(C(F)(F)F)ccc23)CC1 [compound 826655]
4 | 45 | O=C(NCCN1CCOCC1)[C@@H]1C[C@H]1CN1CCN(c2csc3cc(C(F)(F)F)ccc23)CC1 [compound 826656]
5 | 17 | O=C(NC1CCCC1)[C@@H]1C[C@H]1CN1CCN(c2csc3cc(C(F)(F)F)ccc23)CC1 [compound 826658]

same assay, conditions: Table 2 part the 10th table; read-out: d3Ki

Row | SMILES | Ki [nM]
6 | O=C([C@@H]1C[C@H]1CN1CCN(c2csc3cc(C(F)(F)F)ccc23)CC1)N1CCCCC1 [compound 826081] | 18.6
7 | O=C([C@@H]1CCCC[C@@H]1CN1CCN(c2csc3cc(C(F)(F)F)ccc23)CC1)N1CCCCC1 [compound 826119] | 219

Now from value to compound:

Row | Ki [nM] | SMILES
8 | 14 | O=C([C@@H]1C[C@H]1CN1CCN(c2csc3cc(C(F)(F)F)ccc23)CC1)N1CCCC1 [compound 826657]
9 | 140 | CCOC(=O)C1CN(C(=O)[C@@H]2C[C@H]2CN2CCN(c3csc4cc(C(F)(F)F)ccc34)CC2)CCC1=O (stereo partly shown) [compound 826659]
10 | 53 | O=C([C@@H]1C[C@H]1CN1CCN(c2csc3cc(C(F)(F)F)ccc23)CC1)N1CCC(O)CC1 [compound 826660]
11 | 25 | NC(=O)C1CCN(C(=O)[C@@H]2C[C@H]2CN2CCN(c3csc4cc(C(F)(F)F)ccc34)CC2)CC1 [compound 826661]
12 | 69 | O=C([C@@H]1C[C@H]1CN1CCN(c2csc3cc(C(F)(F)F)ccc23)CC1)N1CCC(Cc2ccccc2)CC1 [compound 826662]
13 | 0.24 | O=C([C@@H]1C[C@H]1CN1CCN(c2csc3cc(F)ccc23)CC1)N1CCCC1 [compound 826669]
14 | 6.8 | CCOC(=O)C1CN(C(=O)[C@@H]2C[C@H]2CN2CCN(c3csc4cc(F)ccc34)CC2)CCC1=O (stereo partly shown) [compound 826671]
15 | 7.9 | O=C([C@@H]1C[C@H]1CN1CCN(c2csc3cc(F)ccc23)CC1)N1CCC(Cc2ccccc2)CC1 [compound 826673]
16 | 48 | N#CC1(c2ccccc2)CCN(C(=O)[C@@H]2C[C@H]2CN2CCN(c3csc4cc(F)ccc34)CC2)CC1 [compound 826674]
17 | 8 | CC1CCCC(C)N1C(=O)[C@@H]1C[C@H]1CN1CCN(c2csc3cc(F)ccc23)CC1 (stereo partly shown) [compound 826675]
18 | 2 | O=C([C@@H]1C[C@H]1CN1CCN(c2csc3cc(F)ccc23)CC1)N1CCCCC1 [compound 826676]
19 | 3.7 | O=C([C@@H]1C[C@H]1CN1CCCN(c2csc3cc(C(F)(F)F)ccc23)CC1)N1CCCC1 [compound 826683]

same assay, conditions: d3Ki, Table 2 part the 10th table

Row | SMILES | Ki [nM]
20 | O=C([C@@H]1C[C@H]1CN1CCN(c2csc3cc(C(F)(F)F)ccc23)CC1)N1CCC(N2CCCC2)CC1 [compound 826664] | 9.4
21 | O=C([C@@H]1C[C@H]1CN1CCN(c2csc3cc(F)ccc23)CC1)N1CCC(O)CC1 [compound 826672] | 0.64

same assay, conditions: read-out: d3Ki

Row | SMILES | Ki [nM]
22 | CN(C)c1ccc(CNC(=O)[C@@H]2CCCC[C@H]2CN2CCN(c3csc4cc(C(F)(F)F)ccc34)CC2)cc1 [compound 826086] | 103
23 | Cc1cccc(CNC(=O)[C@@H]2CCCC[C@H]2CN2CCN(c3csc4cc(C(F)(F)F)ccc34)CC2)c1 [compound 826092] | 293
24 | O=C(NCc1ccc2c(c1)OCO2)[C@@H]1CCCC[C@H]1CN1CCN(c2csc3cc(C(F)(F)F)ccc23)CC1 [compound 826098] | 451
25 | O=C(Nc1cccnc1)[C@@H]1CCCC[C@H]1CN1CCN(c2csc3cc(C(F)(F)F)ccc23)CC1 [compound 826100] | 193
26 | O=C(NCc1nc2ccccc2[nH]1)[C@@H]1CCCC[C@@H]1CN1CCN(c2csc3cc(C(F)(F)F)ccc23)CC1 [compound 826102] | 210
27 | CN(C)c1ccc(CNC(=O)[C@@H]2CCCC[C@@H]2CN2CCN(c3csc4cc(C(F)(F)F)ccc34)CC2)cc1 [compound 826104] | 16.8
28 | O=C(NC1CC1)[C@@H]1CCCC[C@@H]1CN1CCN(c2csc3cc(C(F)(F)F)ccc23)CC1 [compound 826105] | 690
29 | O=C(NCc1ccccc1)[C@@H]1CCCC[C@@H]1CN1CCN(c2csc3cc(C(F)(F)F)ccc23)CC1 [compound 826106] | 230
30 | O=C(NCc1ccc(C(F)(F)F)cc1)[C@@H]1CCCC[C@@H]1CN1CCN(c2csc3cc(C(F)(F)F)ccc23)CC1 [compound 826108] | 100
31 | O=C(NC1CCCCC1)[C@@H]1CCCC[C@@H]1CN1CCN(c2csc3cc(C(F)(F)F)ccc23)CC1 [compound 826113] | 200
32 | O=C(NCc1ccc2c(c1)OCO2)[C@@H]1CCCC[C@@H]1CN1CCN(c2csc3cc(C(F)(F)F)ccc23)CC1 [compound 826115] | 72.3
33 | COc1cc(CNC(=O)[C@@H]2CCCC[C@@H]2CN2CCN(c3csc4cc(C(F)(F)F)ccc34)CC2)cc(OC)c1OC [compound 826116] | 59.9
34 | O=C(NCCc1ccccn1)[C@@H]1CCCC[C@@H]1CN1CCN(c2csc3cc(C(F)(F)F)ccc23)CC1 [compound 826117] | 241
35 | O=C(Nc1cccnc1)[C@@H]1CCCC[C@@H]1CN1CCN(c2csc3cc(C(F)(F)F)ccc23)CC1 [compound 826118] | 568
36 | O=C(NCc1ccccn1)[C@@H]1CCCC[C@H]1CN1CCN(c2csc3cc(C(F)(F)F)ccc23)CC1 [compound 826120] | 487

The next lines start with the values.

Row | Ki [nM] | SMILES
37 | 502 | O=C(NC1CC1)[C@@H]1CCCC[C@H]1CN1CCN(c2csc3cc(C(F)(F)F)ccc23)CC1 [compound 826121]
38 | 130 | O=C(NCc1ccco1)[C@@H]1CCCC[C@@H]1CN1CCN(c2csc3cc(C(F)(F)F)ccc23)CC1 [compound 826122]
39 | 1.9 | C[C@H]1CC[C@H](NC(=O)[C@@H]2C[C@H]2CN2CCN(c3csc4cc(F)ccc34)CC2)CC1 [compound 826665]
40 | 6.3 | COC(=O)[C@H]1CC[C@H](NC(=O)[C@@H]2C[C@H]2CN2CCN(c3csc4cc(F)ccc34)CC2)CC1 [compound 826666]
41 | 2.5 | CC[C@H]1CC[C@H](NC(=O)[C@@H]2C[C@H]2CN2CCN(c3csc4cc(F)ccc34)CC2)CC1 [compound 826667]
42 | 3.9 | O=C(NC1CCCCCCCC1)[C@@H]1C[C@H]1CN1CCN(c2csc3cc(F)ccc23)CC1 [compound 826668]
43 | 4.2 | O=C(NC1CCCC1)[C@@H]1C[C@H]1CN1CCN(c2csc3cc(F)ccc23)CC1 [compound 826670]
44 | 2.3 | O=C(NC1CCCCC1)[C@@H]1C[C@H]1CN1CCN(c2csc3cc(F)ccc23)CC1 [compound 826677]
45 | 9.1 | CCOC(=O)[C@H]1CC[C@H](NC(=O)[C@@H]2C[C@H]2CN2CCCN(c3csc4cc(C(F)(F)F)ccc34)CC2)CC1 [compound 826679]
46 | 58 | CC[C@H]1CC[C@H](NC(=O)[C@@H]2C[C@H]2CN2CCCN(c3csc4cc(C(F)(F)F)ccc34)CC2)CC1 [compound 826680]
47 | 48 | O=C(NC1CCCCCCCC1)[C@@H]1C[C@H]1CN1CCCN(c2csc3cc(C(F)(F)F)ccc23)CC1 [compound 826681]
48 | 103 | O=C(NCCN1CCOCC1)[C@@H]1C[C@H]1CN1CCCN(c2csc3cc(C(F)(F)F)ccc23)CC1 [compound 826682]
49 | 7.9 | O=C(NC1CCCC1)[C@@H]1C[C@H]1CN1CCCN(c2csc3cc(C(F)(F)F)ccc23)CC1 [compound 826684]
